Measured values as given in PubChem BioAssay (NCI).
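How tested: cells in 96-well plates exposed to compound for 48 hours at five concentrations. The concentration for 50% growth inhibition is given as GI50. The concentration for full growth arrest is given as TGI.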

Assays:
Test in all cases: NCI-60 cell line screen, 48 h
A498 renal = test system: A498 renal
U251 CNS = test system: U251 CNS
HCT-116 colon = test system: HCT-116 colon
SF-268 CNS = test system: SF-268 CNS
BT-549 breast = test system: BT-549 breast
MDA-MB-435 = test system: MDA-MB-435
MOLT-4 leukemia = test system: MOLT-4 leukemia
SF-295 CNS = test system: SF-295 CNS
HT29 colon = test system: HT29 colon
T-47D breast = test system: T-47D breast
EKVX NSCLC = test system: EKVX NSCLC
MCF7 breast = test system: MCF7 breast
LOX IMVI melanoma = test system: LOX IMVI melanoma
CAKI-1 renal = test system: CAKI-1 renal
UO-31 renal = test system: UO-31 renal
CCRF-CEM leukemia = test system: CCRF-CEM leukemia
NCI-H226 lung = test system: NCI-H226 lung
SN12C renal = test system: SN12C renal
HOP-92 NSCLC = test system: HOP-92 NSCLC
OVCAR-3 ovarian = test system: OVCAR-3 ovarian
NCI-H522 lung = test system: NCI-H522 lung
K-562 leukemia = test system: K-562 leukemia
DU-145 prostate = test system: DU-145 prostate
SK-MEL-5 melanoma = test system: SK-MEL-5 melanoma
A549 NSCLC = test system: A549 NSCLC
OVCAR-8 ovarian = test system: OVCAR-8 ovarian
OVCAR-5 ovarian = test system: OVCAR-5 ovarian
ACHN renal = test system: ACHN renal

Compound: OCCNCCNc1c2ccccc2nc2oc3ccccc3c12
- TGI (A498 renal): 21.9 µM
- GI50 (U251 CNS): 12.5 µM
- TGI (U251 CNS): 30.2 µM
- GI50 (HCT-116 colon): 4.61 µM
- TGI (HCT-116 colon): 16.2 µM
- GI50 (SF-268 CNS): 7.33 µM
- TGI (SF-268 CNS): 28.3 µM
- GI50 (BT-549 breast): 13.3 µM
- TGI (BT-549 breast): 28.2 µM
- GI50 (MDA-MB-435): 11.5 µM
- TGI (MDA-MB-435): 29.3 µM
- GI50 (MOLT-4 leukemia): 4.78 µM
- TGI (MOLT-4 leukemia): > 100 µM
- GI50 (SF-295 CNS): 6.02 µM
- TGI (SF-295 CNS): 29.6 µM
- GI50 (HT29 colon): 4 µM
- TGI (HT29 colon): 21.5 µM
- GI50 (T-47D breast): 11.7 µM
- TGI (T-47D breast): 38.4 µM
- GI50 (EKVX NSCLC): 13 µM
- TGI (EKVX NSCLC): 46.1 µM
- GI50 (MCF7 breast): 6.01 µM
- TGI (MCF7 breast): 29.2 µM
- GI50 (LOX IMVI melanoma): 5.87 µM
- TGI (LOX IMVI melanoma): 20.6 µM
- GI50 (CAKI-1 renal): 11.9 µM
- TGI (CAKI-1 renal): 56.4 µM
- GI50 (UO-31 renal): 7.28 µM
- TGI (UO-31 renal): 34.4 µM
- GI50 (CCRF-CEM leukemia): 8.97 µM
- TGI (CCRF-CEM leukemia): 41.9 µM
- GI50 (NCI-H226 lung): 20.5 µM
- TGI (NCI-H226 lung): 62 µM
- GI50 (SN12C renal): 8.86 µM
- TGI (SN12C renal): 57.7 µM
- GI50 (HOP-92 NSCLC): 6.15 µM
- TGI (HOP-92 NSCLC): 25.7 µM
- GI50 (OVCAR-3 ovarian): 12.5 µM
- TGI (OVCAR-3 ovarian): 42.8 µM
- GI50 (NCI-H522 lung): 7.73 µM
- TGI (NCI-H522 lung): 23.7 µM
- GI50 (K-562 leukemia): 33.9 µM
- TGI (K-562 leukemia): > 100 µM
- GI50 (DU-145 prostate): 10.1 µM
- TGI (DU-145 prostate): 23.5 µM
- GI50 (SK-MEL-5 melanoma): 8.97 µM
- TGI (SK-MEL-5 melanoma): 21.1 µM
- GI50 (A549 NSCLC): 10.3 µM
- TGI (A549 NSCLC): 35.7 µM
- GI50 (OVCAR-8 ovarian): 9.46 µM
- TGI (OVCAR-8 ovarian): > 100 µM
- GI50 (OVCAR-5 ovarian): 24.2 µM
- TGI (OVCAR-5 ovarian): 71.6 µM
- GI50 (ACHN renal): 5.82 µM
- TGI (ACHN renal): 32.7 µM
